{
  "source": "paper PMC3842914",
  "about": "“Meleagrin, a New FabI Inhibitor from Penicillium chryosogenum with at Least One Additional Mode of Action” (PLoS ONE, 2013)",
  "key": {"[1]": {"system": "S. aureus RN4220", "assay": "Inhibition of macromolecular biosynthesis (radiolabeled precursor incorporation) in S. aureus", "format": "cell-based, Staphylococcus aureus", "conditions": "drugs at 2 times the MIC", "experimental": "(§1) To monitor the effects of compound 1 on lipid, DNA, RNA, protein, and cell wall biosynthesis, its effects on the incorporation of [1-^14C] acetate (50 mCi/mmol), [2-^14C] thymidine (59.8 mCi/mmol), [U-^14C] uridine (539 mCi/mmol), L-[U-^14C] leucine (306 mCi/mmol) or L-[U-^14C] isoleucine (329 mCi/mmol), and N-acetyl-D-[1-^14C] glucosamine (58.1 mCi/mmol) into S. aureus and S. pneumoniae were measured as described previously. S. aureus was exponentially grown to an A650 of 0.2 in Mueller–Hinton broth. S. pneumoniae was grown in tryptic soy broth supplemented with 5% sheep blood. […] An equal volume of DMSO solvent was added to the untreated control. After incubation with the radiolabeled precursors at 37°C for 1 h, followed by centrifugation, the cell pellets were washed twice with PBS buffer. After acetate incorporation, the total cellular lipids were extracted with chloroform-methanol-water. The incorporated radioactivity in the chloroform phase was measured by scintillation counting. For the other precursors, incorporation was terminated by adding 10% (w/v) TCA and cooling on ice for 20 min. The precipitated material was collected on Whatman GF/C glass microfiber filters, washed with TCA and ethanol, dried, and counted using a scintillation counter. The total counts incorporated at 1 h of incubation without inhibitors ranged from >7,000 for [U-^14C] uridine to <13,000 for [1-^14C] acetate. […] In all experiments, known antibacterial agents were included as positive controls."}, "[2]": {"system": "S. pneumoniae KCTC 3932", "assay": "Inhibition of macromolecular biosynthesis (radiolabeled precursor incorporation) in S. pneumoniae", "format": "cell-based, Streptococcus pneumoniae", "conditions": "drugs at 2 times the MIC", "experimental": "as §1"}, "[3]": {"biological_target": "T1, S. aureus FabI (Staphylococcus aureus, UniProt Q6GI75)", "T1 construct": "made in house", "T1 sequence (Q6GI75 1-256)": "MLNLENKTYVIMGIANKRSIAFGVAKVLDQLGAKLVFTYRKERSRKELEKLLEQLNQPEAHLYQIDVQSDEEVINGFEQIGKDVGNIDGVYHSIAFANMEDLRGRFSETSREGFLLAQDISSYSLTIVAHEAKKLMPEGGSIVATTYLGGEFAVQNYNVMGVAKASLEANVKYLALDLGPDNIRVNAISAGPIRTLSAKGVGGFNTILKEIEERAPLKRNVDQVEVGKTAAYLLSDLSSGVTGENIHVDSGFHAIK", "assay": "S. aureus FabI enzyme assay (NADPH use at 340 nm, t-o-NAC thioester substrate)", "format": "biochemical", "from_the_text": "S. aureus FabI and E. coli FabI enzymes were cloned, overexpressed, and purified as described previously. The wild-type fabK gene was amplified by PCR from genomic DNA obtained from Streptococcus pneumoniae KCTC 5412 by using the primers 5′-[…]-3′ and 5′-[…]-3′, which contained NdeI and XhoI restriction sites, respectively. After the DNA sequence was confirmed, the gene was cloned into the pET22b vector (Novagen, Gibbstown, NJ, USA). The construct was transformed into E. coli BL21 (DE3) for expression following induction with isopropylthiogalactoside. The C-terminal His-tagged protein was purified as described previously. Assays were conducted in half-area, 96-well microtiter plates. The compounds were dissolved in DMSO and evaluated in 100-μL assay mixtures containing components specific for each enzyme (see below). Reduction of the trans-2-octenoyl N-acetylcysteamine (t-o-NAC thioester) substrate analog was measured spectrophotometrically following the utilization of NADH or NADPH at 340 nm at 30°C for the linear period of the assay. S. aureus FabI assays contained 50 mM sodium acetate (pH 6.5), 200 μM t-o-NAC thioester, 200 μM NADPH, and 150 nM S. aureus FabI.\nNADH was used as a cofactor rather than NADPH for the E. coli FabI assay. Substrate concentrations used for the Lineweaver–Burk plot were 100, 200, 300, and 400 μM, whereas the concentrations of the cofactor were 100, 200, 400, and 600 μM. The rate of decrease in the amount of NADPH in each reaction was measured with a microtiter enzyme-linked immunosorbent assay (ELISA) reader by using the SOFTmax PRO software (Molecular Devices, Sunnyvale, CA, USA). The inhibitory activity was calculated according to the following formula: % of inhibition = 100× [1− (rate in the presence of compound/rate in the untreated control)]. IC50 values were calculated by fitting the data to a sigmoid equation. An equal volume of DMSO solvent was used for the untreated control. FabK assays contained 100 mM sodium acetate (pH 6.5), 2% glycerol, 200 mM NH4Cl, 50 µM t-o-NAC thioester, 200 µM NADH, and 150 nM S. pneumoniae FabK."}, "[4]": {"system": "S. aureus RN4220", "assay": "MIC by broth microdilution, S. aureus RN4220 (wild type)", "format": "cell-based, Staphylococcus aureus", "conditions": "Staphylococcus aureus; S. aureus RN4220 (wild type)", "experimental": "(§2) Whole-cell antimicrobial activity was determined by broth microdilution as described previously. The test strains except for S. pneumoniae were grown to mid-log phase in Mueller–Hinton broth and diluted 1,000-fold in the same medium. Cells (10^5/mL) were inoculated into Mueller–Hinton broth and dispensed at 0.2 mL/well into a 96-well microtiter plate. S. pneumoniae was grown in tryptic soy broth supplemented with 5% sheep blood. MICs were determined in triplicate by serial 2-fold dilutions of test compounds. […] Bacterial growth was determined by measuring the absorption at 650 nm by using a microtiter ELISA reader."}, "[5]": {"system": "S. aureus RN4220 (pE194)", "assay": "Overexpression assay, MIC for vector-containing S. aureus RN4220 (pE194)", "format": "cell-based", "conditions": "Staphylococcus aureus, read-out: MIC S. aureus (pE194)", "experimental": "as §2\n(§3) An overexpression assay using S. aureus RN4220, S. aureus RN4220 (pE194), and S. aureus RN4220 (pE194-fabI) was conducted to perform target validation of FabI inhibitors as described previously. Additionally, both fabI- and fabK-overexpressing E. coli were constructed to test a multitarget effect of the compounds. The wild-type fabI gene from the genomic DNA of E. coli W3110 was amplified by PCR by using the primers 5′-[…]-3′ and 5′-[…]-3′. The wild-type fabK gene from the genomic DNA of S. pneumoniae KCTC 5412 was amplified by PCR by using the primers 5′-[…]-3′ and 5′-[…] […]-3′. The resulting products were cloned into the pBAD-TOPO TA expression vector (Invitrogen, Carlsbad, CA, USA) to yield the pBAD-fabI and pBAD-fabK recombinant plasmids, which placed the expression of the genes fabI and fabK, respectively, under the control of the arabinose promoter. Recombinant pBAD-fabI and pBAD-fabK were then introduced into the pump-negative (tolC) E. coli EW1b via electroporation to generate E. coli EW1b (pBAD-fabI) and E. coli EW1b (pBAD-fabK), respectively."}, "[6]": {"system": "S. aureus RN4220 (pE194-fabI)", "assay": "Overexpression assay, MIC for fabI-overexpressing S. aureus RN4220 (pE194-fabI)", "format": "cell-based", "conditions": "Staphylococcus aureus, read-out: MIC S. aureus (pE194-fabI)", "experimental": "as §2, §3"}, "[7]": {"biological_target": "T1, S. aureus FabI", "assay": "Fluorescence quenching assay (direct binding)", "conditions": "increasing amounts of compound; FabI fluorescence at 307 nm", "experimental": "Fluorescence spectra were measured using a SHIMADZU fluorescence spectrophotometer (model RF-5310PC). […] Protein quenching was monitored at 25°C by using 5-nm excitation and 5-nm emission wavelength. The excitation wavelength was 280 nm, and the emission spectra were measured between 290 and 430 nm."}, "[8]": {"system": "E. coli EW1b", "assay": "Overexpression assay, MIC for pump-negative (tolC) E. coli EW1b", "format": "cell-based", "conditions": "Escherichia coli", "experimental": "as §2, §3"}, "[9]": {"system": "E. coli EW1b(pBAD)", "assay": "Overexpression assay, MIC for vector-containing E. coli EW1b (pBAD)", "format": "cell-based", "conditions": "Escherichia coli", "experimental": "as §2, §3"}, "[10]": {"system": "E. coli EW1b(pBAD-fabI)", "assay": "Overexpression assay, MIC for fabI-overexpressing E. coli EW1b (pBAD-fabI)", "format": "cell-based", "conditions": "Escherichia coli", "experimental": "as §2, §3"}, "[11]": {"system": "E. coli EW1b(pBAD-fabK)", "assay": "Overexpression assay, MIC for fabK-overexpressing E. coli EW1b (pBAD-fabK)", "format": "cell-based", "conditions": "Escherichia coli", "experimental": "as §2, §3"}},
  "note": "Where two headings read alike, the source gives them in different places.",
  "data": [
    {"smiles": "CO[C@H]1/C=C/O[C@@]2(C)Oc3c(C)c(O)c4c(O)c(c(/C=N/N5CCN(C)CC5)c(O)c4c3C2=O)NC(=O)/C(C)=C\\C=C\\[C@H](C)[C@H](O)[C@@H](C)[C@@H](O)[C@@H](C)[C@H](OC(C)=O)[C@@H]1C", "note": "[rifampin, reference compound]", "values": [
      {"measurement": "Inhibition of precursor incorporation, [U-14C] Uridine", "setting": "[1]", "value": 69, "unit": "%"},
      {"measurement": "Inhibition of precursor incorporation, [U-14C] Uridine", "setting": "[2]", "value": 92, "unit": "%"}
    ]},
    {"smiles": "Cc1onc(-c2ccccc2)c1C(=O)N[C@@H]1C(=O)N2[C@@H]1SC(C)(C)[C@@H]2C(=O)O", "note": "[Oxacillin, reference compound]", "values": [
      {"measurement": "IC50", "setting": "[3]", "value": "> 100", "unit": "µM"},
      {"measurement": "MIC", "setting": "[4]", "value": 0.25, "unit": "µg/mL"},
      {"measurement": "MIC", "setting": "[5]", "value": 0.25, "unit": "µg/mL"},
      {"measurement": "MIC", "setting": "[6]", "value": 0.25, "unit": "µg/mL"}
    ]},
    {"smiles": "CN[C@H](CC(C)C)C(=O)N[C@H]1C(=O)N[C@@H](CC(N)=O)C(=O)N[C@H]2C(=O)N[C@H]3C(=O)N[C@H](C(=O)N[C@H](C(=O)O)c4cc(O)cc(O)c4-c4cc3ccc4O)[C@H](O)c3ccc(c(Cl)c3)Oc3cc2cc(c3O[C@@H]2O[C@H](CO)[C@@H](O)[C@H](O)[C@H]2O[C@H]2C[C@](C)(N)[C@H](O)[C@H](C)O2)Oc2ccc(cc2Cl)[C@H]1O", "note": "[vancomycin, reference compound]", "values": [
      {"measurement": "Inhibition of precursor incorporation, N-Acetyl-D-[1-14C] Glucosamine", "setting": "[1]", "value": 79, "unit": "%"},
      {"measurement": "Inhibition of precursor incorporation, N-Acetyl-D-[1-14C] Glucosamine", "setting": "[2]", "value": 88, "unit": "%"}
    ]},
    {"smiles": "NC[C@H]1O[C@H](O[C@H]2[C@H](O)[C@@H](O[C@H]3O[C@H](CO)[C@@H](O)[C@H](N)[C@H]3O)[C@H](N)C[C@@H]2N)[C@H](O)[C@@H](O)[C@@H]1O", "note": "[kanamycin, reference compound]", "values": [
      {"measurement": "Fluorescence quenching of S. aureus FabI", "setting": "[7]", "value": "did not"}
    ]},
    {"smiles": "C/C=C/C/C=C/CCC(=O)[C@H]1O[C@H]1C(N)=O", "note": "[cerulenin, reference compound]", "values": [
      {"measurement": "Inhibition of precursor incorporation, [1-14C] Acetate", "setting": "[2]", "value": 95, "unit": "%"}
    ]},
    {"smiles": "CC1(C)S[C@@H]2[C@H](NC(=O)[C@H](N)c3ccccc3)C(=O)N2[C@H]1C(=O)O", "note": "[Ampicillin]", "values": [
      {"measurement": "MIC", "setting": "[8]; read-out: MIC E. coli EW1b (+) Ara", "value": 1, "unit": "µg/mL"},
      {"measurement": "MIC", "setting": "[8]; read-out: MIC E. coli EW1b (−) Ara", "value": 1, "unit": "µg/mL"},
      {"measurement": "MIC", "setting": "[9]; read-out: MIC E. coli EW1b(pBAD) (+) Ara", "value": "> 125", "unit": "µg/mL"},
      {"measurement": "MIC", "setting": "[9]; read-out: MIC E. coli EW1b(pBAD) (−) Ara", "value": "> 125", "unit": "µg/mL"},
      {"measurement": "MIC", "setting": "[10]; read-out: MIC E. coli EW1b(pBAD-fabI) (+) Ara", "value": "> 125", "unit": "µg/mL"},
      {"measurement": "MIC", "setting": "[10]; read-out: MIC E. coli EW1b(pBAD-fabI) (−) Ara", "value": "> 125", "unit": "µg/mL"},
      {"measurement": "MIC", "setting": "[11]; read-out: MIC E. coli EW1b(pBAD-fabK) (+) Ara", "value": "> 125", "unit": "µg/mL"},
      {"measurement": "MIC", "setting": "[11]; read-out: MIC E. coli EW1b(pBAD-fabK) (−) Ara", "value": "> 125", "unit": "µg/mL"}
    ]}
  ]
}
